Source: US11022556B2, “Tetrazolium compound for detecting microorganisms, reagent for detecting microorganisms and method for detecting microorganisms” (JNC CORPORATION, priority 2010, dated 2021)

Tests used:
general viable cells = test: comparative test for detecting microorganisms on sheet media for detecting general viable cells; assay type: cell-based; conditions: food samples (meat, precut vegetables, delicatessens); sheet medium with 0.03 g/m^3 reagent; 35° C.; 24 hours incubation vs 48 hours for 2,3,5-triphenyltetrazolium chloride
Procedure: Next, the results obtained by a comparative test for detecting microorganisms using the chromogenic reagent of Example 1 and the chromogenic reagent of Comparative Example are described below. The comparative test was performed as follows. First, sheet media for detecting general viable cells containing as the chromogenic reagent 0.03 g/m^3 each of tetrazolium compound A of Example 1 and 2,3,5-triphenyltetrazolium chloride of Comparative Example, respectively, were prepared. The sheet media for general viable cells were the same except that the chromogenic reagents were different.
Then, 10 g of either one of meat, precut vegetables, delicatessens, etc. was put into a sterilized bag and 100 ml of sterile saline was added thereto. The mixture was homogenized with a stomacher. […]
The sheet medium of Example 1 for detecting general viable cells containing the chromogenic reagent was incubated for 24 hours and the sheet medium for detecting general viable cells containing the chromogenic reagent for comparison was incubated for 48 hours, respectively, both at 35° C. The viable cell counts were compared between the count of viable cells visually detected by the chromogenic reagent of Example 1 and the count of viable cells detected by the chromogenic reagent of Comparative Example. […]

[1] = absorption wavelength and colour of the formazan dye formed from the tetrazolium compound; assay type: physicochemical; conditions: formazan dye produced by reduction of the tetrazolium compound

Row | Compound | number of colonies (viable cell count) visually detected, compared with the chromogenic reagent of Comparative Example (general viable cells) | colour developed by the formazan dye [1] | peak of absorption wavelength of the formazan dye formed [1]
1 | COc1ccccc1-n1nc(-c2ccccc2)n[n+]1-c1ccc([N+](=O)[O-])cc1.[Cl-] [tetrazolium compound A, 2-(2-Methoxyphenyl)-3-(4-nitrophenyl)-5-phenyltetrazolium chloride] | almost the same number or more of colonies were detected | blue to bluish purple | approximately 410 nm
2 | COc1cc([N+](=O)[O-])ccc1-n1nc(-c2ccccc2)n[n+]1-c1ccc([N+](=O)[O-])cc1.[Cl-] [tetrazolium compound B, 2-(2-Methoxy-4-nitrophenyl)-3-(4-nitrophenyl)-5-phenyltetrazolium chloride] | the colonies were detected in the same number as in or more than | blue to bluish purple | approximately 410 nm
